Results published in patent publication US9815796B2 (Merck Sharp & Dohme Corp., priority 2013, dated 2017).

How the values were obtained:
human PDE2A1 = human PDE2A1 (Homo sapiens (Human), UniProt O00408); test: IMAP FP PDE selectivity panel, human PDE2A1; format: biochemical; settings: Human PDE2, Lab B; read-out: Human PDE2 Ki (nM) - Lab B
Method in brief: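 IMAP FP format: substrate 50 nM FAM-cAMP plus 1000 nM cGMP, enzyme (insect-cell GST-tagged human PDE2A1) at ~20% conversion, 60 min reaction at room temperature. Apparent inhibition constants calculated from parallel/perpendicular fluorescence with KM 10,000 nM.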

Rhesus PDE2A3 = Rhesus PDE2A3 (Macaca mulatta, UniProt B3VTJ2); test: PDE2 fluorescence polarization (IMAP FP) inhibition assay, rhesus enzyme; format: biochemical, rhesus macaque; settings: Rhesus PDE2, Lab B; read-out: Rhesus PDE2 Ki (nM) - Lab B
Method in brief: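 IMAP FP (mP from parallel and perpendicular fluorescence against substrate-only control) was read ≥1 h after adding binding reagent. The preceding 60 min room-temperature reaction contained FAM-cAMP (50 nM) and cGMP (1 uM) in pH 7.2 Tris buffer with MgCl2 and DTT. Enzyme was supernatant of sonicated AD293 cells expressing rhesus PDE2A3; compounds were 3-fold titrated, DMSO 1% final.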

Sequence of Rhesus PDE2A3 (B3VTJ2 1-941): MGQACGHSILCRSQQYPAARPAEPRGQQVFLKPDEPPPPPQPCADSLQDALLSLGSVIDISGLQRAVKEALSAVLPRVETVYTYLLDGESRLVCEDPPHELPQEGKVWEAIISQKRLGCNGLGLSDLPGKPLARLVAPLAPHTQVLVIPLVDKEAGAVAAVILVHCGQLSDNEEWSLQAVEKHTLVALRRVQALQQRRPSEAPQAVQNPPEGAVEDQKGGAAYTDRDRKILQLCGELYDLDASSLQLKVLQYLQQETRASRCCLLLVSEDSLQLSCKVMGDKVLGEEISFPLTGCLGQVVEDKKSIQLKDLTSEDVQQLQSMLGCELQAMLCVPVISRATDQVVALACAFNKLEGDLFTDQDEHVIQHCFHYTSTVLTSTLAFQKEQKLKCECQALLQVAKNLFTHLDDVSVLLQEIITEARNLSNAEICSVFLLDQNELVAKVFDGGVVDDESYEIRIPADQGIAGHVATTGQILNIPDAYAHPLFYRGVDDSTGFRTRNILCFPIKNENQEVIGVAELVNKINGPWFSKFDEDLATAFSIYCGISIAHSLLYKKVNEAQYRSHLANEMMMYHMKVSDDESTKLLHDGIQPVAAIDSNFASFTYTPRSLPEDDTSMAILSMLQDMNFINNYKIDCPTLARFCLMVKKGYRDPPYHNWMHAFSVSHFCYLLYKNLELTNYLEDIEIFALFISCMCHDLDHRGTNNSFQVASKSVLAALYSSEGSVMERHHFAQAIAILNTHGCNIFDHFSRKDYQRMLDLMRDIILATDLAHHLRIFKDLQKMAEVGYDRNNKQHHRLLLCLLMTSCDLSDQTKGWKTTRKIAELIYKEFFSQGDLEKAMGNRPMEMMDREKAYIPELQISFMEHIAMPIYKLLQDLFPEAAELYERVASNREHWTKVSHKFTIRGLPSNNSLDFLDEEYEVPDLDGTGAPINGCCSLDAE
Sequence of human PDE2A1 (O00408 other isoform, or with tags, fused parts or gaps): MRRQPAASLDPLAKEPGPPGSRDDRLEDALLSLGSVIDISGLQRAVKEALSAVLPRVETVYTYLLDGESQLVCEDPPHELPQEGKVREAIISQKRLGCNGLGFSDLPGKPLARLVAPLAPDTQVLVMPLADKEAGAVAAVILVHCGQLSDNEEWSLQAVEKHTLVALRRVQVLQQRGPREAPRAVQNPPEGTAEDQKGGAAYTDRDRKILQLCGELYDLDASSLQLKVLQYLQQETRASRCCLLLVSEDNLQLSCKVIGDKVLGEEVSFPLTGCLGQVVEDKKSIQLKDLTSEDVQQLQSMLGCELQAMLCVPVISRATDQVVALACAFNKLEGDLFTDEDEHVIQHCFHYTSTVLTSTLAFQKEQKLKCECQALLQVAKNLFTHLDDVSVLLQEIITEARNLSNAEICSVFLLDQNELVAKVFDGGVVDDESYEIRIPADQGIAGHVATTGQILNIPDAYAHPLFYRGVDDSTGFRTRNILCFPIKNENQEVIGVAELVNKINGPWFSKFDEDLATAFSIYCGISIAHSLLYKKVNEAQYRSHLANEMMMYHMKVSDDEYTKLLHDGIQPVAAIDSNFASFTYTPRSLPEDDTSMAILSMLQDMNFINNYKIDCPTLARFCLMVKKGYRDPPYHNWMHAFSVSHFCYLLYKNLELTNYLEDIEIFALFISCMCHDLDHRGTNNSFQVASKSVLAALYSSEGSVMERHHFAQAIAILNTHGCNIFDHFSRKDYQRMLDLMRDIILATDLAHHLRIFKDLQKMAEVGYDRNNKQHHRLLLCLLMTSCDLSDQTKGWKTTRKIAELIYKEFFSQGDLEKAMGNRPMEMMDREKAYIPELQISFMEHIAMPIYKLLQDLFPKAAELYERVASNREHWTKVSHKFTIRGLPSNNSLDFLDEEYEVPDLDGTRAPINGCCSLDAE

SMILES | Ki (human PDE2A1) [nM] | Ki (Rhesus PDE2A3) [nM]
O=C(N[C@@H](c1ccc(OC(F)F)cc1)C1CC1)c1cc(=O)[nH]c(C2CC2)n1 [Example 446, 2-cyclopropyl-N-{(R)-cyclopropyl[4-(difluoromethoxy)phenyl]methyl}-6-oxo-1,6-dihydropyrimidine-4-carboxamide] | 42 | 43
CC(C)(C)[C@@H](NC(=O)c1cc(=O)[nH]c(C2CC2)n1)c1ccc(C2CC2)cc1 [Example 447, 2-cyclopropyl-N-[(1R)-1-(4-cyclopropylphenyl)-2,2-dimethylpropyl]-6-oxo-1,6-dihydropyrimidine-4-carboxamide] | 1.4 | 1.3
CC(C)(C)[C@@H](NC(=O)c1cc(=O)[nH]c(-c2ncccn2)n1)c1ccc(OC(F)F)cc1 [Example 450, N-{(1R)-1-[4-(difluoromethoxy)phenyl]-2,2-dimethylpropyl}-6-oxo-1,6-dihydro-2,2′-bipyrimidine-4-carboxamide] | 21 | 23
O=C(N[C@@H](c1ccc(SC(F)(F)F)c(F)c1)C1CC1)c1cc(=O)[nH]c(-c2ncccn2)n1 [Example 452, N-[(R)-cyclopropyl{3-fluoro-4-[(trifluoromethyl)sulfanyl]phenyl}meth-yl]-6-oxo-1,6-dihydro-2,2′-bipyrimidine-4-carboxamide] | 9.3 | 9.8
COc1ccc(Cc2nc(C(=O)N[C@@H](c3ccc(C(F)(F)F)cc3)C(C)(C)C)cc(=O)[nH]2)cc1 [Example 455, N-{(1R)-2,2-dimethyl-1-[4-(trifluoromethyl)phenyl]propyl}-2-(4-methoxybenzyl)-6-oxo-1,6-dihydropyrimidine-4-carboxamide] | 0.6 | 0.68
COc1ccc(Cc2nc(C(=O)N[C@@H](c3ccc(C(F)(F)F)cc3)C(C)(C)C)cc(=O)[nH]2)cc1F [Example 457, N-{(1R)-2,2-dimethyl-1-[4-(trifluoromethyl)phenyl]propyl}-2-(3-fluoro-4-methoxybenzyl)-6-oxo-1,6-dihydropyrimidine-4-carboxamide] | 0.64 | 0.68
CC(C)(C)[C@@H](NC(=O)c1cc(=O)[nH]c(-c2ncccn2)n1)c1ccc(OC(F)(F)F)cc1 [Example 461, N-{(1R)-2,2-dimethyl-1-[4-(trifluoromethoxy)phenyl]propyl}-6-oxo-1,6-dihydro-2,2′-bipyrimidine-4-carboxamide] | 7.8 | 7.5
CC(C)(C)[C@@H](NC(=O)c1cc(=O)[nH]c(-c2ccccc2)n1)c1ccc(OC(F)(F)F)cc1 [Example 462, N-{(1R)-2,2-dimethyl-1-[4-(trifluoromethoxy)phenyl]propyl}-6-oxo-2-phenyl-1,6-dihydropyrimidine-4-carboxamide] | 1.5 | 1.4
CC(C)(C)[C@@H](NC(=O)c1cc(=O)[nH]c(C2CC2)n1)c1ccc(OC(F)(F)F)cc1 [Example 463, 2-cyclopropyl-N-{(1R)-2,2-dimethyl-1-[4-(trifluoromethoxy)phenyl]propyl}-6-oxo-1,6-dihydropyrimidine-4-carboxamide] | 0.84 | 1.2
COc1ccc(Cc2nc(C(=O)N[C@@H](c3ccc(OC(F)(F)F)c(F)c3)C(C)(C)C)cc(=O)[nH]2)cc1 [Example 464, N-{(1R)-1-[3-fluoro-4-(trifluoromethoxy)phenyl]-2,2-dimethylpropyl}-2-(4-methoxybenzyl)-6-oxo-1,6-dihydropyrimidine-4-carboxamide] | 0.69 | 0.6
COc1ccc(Cc2nc(C(=O)N[C@@H](c3ccc(SC(F)(F)F)cc3)C(C)(C)C)cc(=O)[nH]2)cc1 [Example 465, N-[(1R)-2,2-dimethyl-1-{4-[(trifluoromethyl)sulfanyl]phenyl}propyl]-2-(4-methoxybenzyl)-6-oxo-1,6-dihydropyrimidine-4-carboxamide] | 0.62 | 0.62
COc1ccc(Cc2nc(C(=O)N[C@@H](c3ccc(OC(F)(F)F)cc3)C(C)(C)C)cc(=O)[nH]2)cc1 [Example 467, N-{(1R)-2,2-dimethyl-1-[4-(trifluoromethoxy)phenyl]propyl}-2-(4-methoxybenzyl)-6-oxo-1,6-dihydropyrimidine-4-carboxamide] | 0.49 | 0.62
COc1ccc(Cc2nc(C(=O)N[C@@H](c3ccc(SC(F)(F)F)cc3)C(C)C)cc(=O)[nH]2)cc1 [Example 469, 2-(4-methoxybenzyl)-N-[(1R)-2-methyl-1-{4-[(trifluoromethyl)sulfanyl]phenyl}propyl]-6-oxo-1,6-dihydropyrimidine-4-carboxamide] | 0.91 | 0.96
COc1ccc(Cc2nc(C(=O)N[C@@H](c3ccc(SC(F)(F)F)c(F)c3)C(C)C)cc(=O)[nH]2)cc1 [Example 470, N-[(1R)-1-{3-fluoro-4-[(trifluoromethyl)sulfanyl]phenyl}-2-methylpropyl]-2-(4-methoxybenzyl)-6-oxo-1,6-dihydropyrimidine-4-carboxamide] | 1.3 | 1.2
COc1ccc(Cc2nc(C(=O)N[C@@H](c3ccc(S(F)(F)(F)(F)F)cc3)C(C)C)cc(=O)[nH]2)cc1 [Example 471, 2-(4-methoxybenzyl)-N-[(1R)-2-methyl-1-[4-(pentafluoro-λ^6-sulfanyl)phenyl]propyl}-6-oxo-1,6-dihydropyrimidine-4-carboxamide] | 1.5 | 1.5
COc1ccc(Cc2nc(C(=O)N[C@@H](c3ccc(C(F)(F)F)c(F)c3)C(C)C)cc(=O)[nH]2)cc1 [Example 472, N-{(1R)-1-[3-fluoro-4-(trifluoromethyl)phenyl]-2-methylpropyl}-2-(4-methoxybenzyl)-6-oxo-1,6-dihydropyrimidine-4-carboxamide] | 1.7 | 1.6
COc1ccc(Cc2nc(C(=O)N[C@@H](c3ccc(OC(F)(F)F)cc3)C(C)C)cc(=O)[nH]2)cc1 [Example 475, 2-(4-methoxybenzyl)-N-{(1R)-2-methyl-1-[4-(trifluoromethoxy)phenyl]propyl}-6-oxo-1,6-dihydropyrimidine-4-carboxamide] | 1.3 | 1.3

Further compounds by falling Ki (human PDE2A1), results first:

Ki (human PDE2A1) [nM] | Ki (Rhesus PDE2A3) [nM] | SMILES
12 | 13 | O=C(N[C@@H](c1ccc(OC(F)F)cc1)C1CC1)c1cc(=O)[nH]c(-c2ccccc2)n1 [Example 448, N-{(R)-cyclopropyl[4-(difluoromethoxy)phenyl]methyl}-6-oxo-2-phenyl-1,6-dihydropyrimidine-4-carboxamide]
7.6 | 7.3 | O=C(N[C@@H](c1ccc(C2CC2)cc1)C1CC1)c1cc(=O)[nH]c(-c2ncccn2)n1 [Example 453, N-[(R)-cyclopropyl(4-cyclopropylphenyl)methyl]-6-oxo-1,6-dihydro-2,2′-bipyrimidine-4-carboxamide]
4.8 | 6.7 | CC(C)(C)[C@@H](NC(=O)c1cc(=O)[nH]c(-c2ncccn2)n1)c1ccc(C2CC2)c(F)c1 [Example 451, N-[(1R)-1-(4-cyclopropyl-3-fluorophenyl)-2,2-dimethylpropyl]-6-oxo-1,6-dihydro-2,2′-bipyrimidine-4-carboxamide]
4 | 3.8 | CC1([C@@H](NC(=O)c2cc(=O)[nH]c(C3CC3)n2)c2ccc(S(F)(F)(F)(F)F)cc2)CC1 [Example 454, 2-cyclopropyl-N-{(R)-(1-methylcyclopropyl)[4-(pentafluoro-λ^6-sulfanyl)phenyl]methyl}-6-oxo-1,6-dihydropyrimidine-4-carboxamide]
2.3 | 2.8 | COc1ccc(Cc2nc(C(=O)N[C@@H](c3ccc(S(F)(F)(F)(F)F)cc3)C3CC3)cc(=O)[nH]2)cc1 [Example 468, N-{(R)-cyclopropyl[4-(pentafluoro-λ^6-sulfanyl)phenyl]methyl}-2-(4-methoxybenzyl)-6-oxo-1,6-dihydropyrimidine-4-carboxamide]
1.8 | 2.6 | CC(C)(C)[C@@H](NC(=O)c1cc(=O)[nH]c(-c2ccccc2)n1)c1ccc(OC(F)F)cc1 [Example 449, N-{(1R)-1-[4-(difluoromethoxy)phenyl]-2,2-dimethylpropyl}-6-oxo-2-phenyl-1,6-dihydropyrimidine-4-carboxamide]
1.7 | 2.1 | CC(C)(C)[C@@H](NC(=O)c1cc(=O)[nH]c(C2CC2)n1)c1ccc(C(F)(F)F)cc1F [Example 445, 2-cyclopropyl-N-{(1R)-1-[2-fluoro-4-(trifluoromethyl)phenyl]-2,2-dimethylpropyl}-6-oxo-1,6-dihydropyrimidine-4-carboxamide]
1.5 | 1.4 | COc1ccc(Cc2nc(C(=O)N[C@@H](c3ccc(C(F)(F)F)cc3)C(C)C)cc(=O)[nH]2)cc1 [Example 474, 2-(4-methoxybenzyl)-N-{(1R)-2-methyl-1-[4-(trifluoromethyl)phenyl]propyl}-6-oxo-1,6-dihydropyrimidine-4-carboxamide]
0.86 | 1.1 | COc1ccc(Cc2nc(C(=O)N[C@@H](c3ccc(OC(F)(F)F)c(F)c3)C(C)C)cc(=O)[nH]2)cc1 [Example 473, N-{(1R)-1-[3-fluoro-4-(trifluoromethoxy)phenyl]-2-methylpropyl}-2-(4-methoxybenzyl)-6-oxo-1,6-dihydropyrimidine-4-carboxamide]
0.79 | 0.85 | COc1ccc(Cc2nc(C(=O)N[C@@H](c3ccc(C(F)(F)F)c(F)c3)C(C)(C)C)cc(=O)[nH]2)cc1 [Example 466, N-{(1R)-1-[3-fluoro-4-(trifluoromethyl)phenyl]-2,2-dimethylpropyl}-2-(4-methoxybenzyl)-6-oxo-1,6-dihydropyrimidine-4-carboxamide]
